Assay results as given in EP0549857A1, “Antibacterial quinolone carboxylic acid derivatives” (KOREA RESEARCH INSTITUTE OF CHEMICAL TECHNOLOGY, priority 1991, dated 1993).
In brackets after ≈: the same amount, converted by molar mass. Like-named read-outs stand apart in the source and are kept apart here.

How the values were obtained:
[1] = test system: Staphylococcus aureus SG 511; test: In vitro anti-bacterial activity test (MIC, two-fold agar dilution); format: cell-based
S. aureus 17740 = test: Preventive effect on the systemic infection; format: in vivo; conditions: Staphylococcus aureus, 17740, in Mus musculus, S. aureus 17740 intraperitoneal infection, NMRI mice, survival on day 7, probit analysis, read-out: ED₅₀
Description: (§1) 10 fold of the pathogen which leads to 100% lethality were injected intraperitoneally to male and female NMRI mice weighing 18 to 20g. Immediately and after 4 hours, the dose of test compounds which was determined by two-fold serial dilution method was administered orally or subcutaneously; and on day 7, the effectiveness was evaluated in terms of ED₅₀ calculated from the number of survived mice by the probit analysis.

P. mirabilis = test: Preventive effect on the systemic infection; format: in vivo; conditions: Proteus mirabilis, in Mus musculus, P. mirabilis intraperitoneal infection, NMRI mice, survival on day 7, probit analysis, read-out: ED₅₀
Description: as §1

[2] = test system: Streptococcus pyogenes 77A; test: In vitro anti-bacterial activity test (MIC, two-fold agar dilution); format: cell-based
[3] = test system: Staphylococcus aureus 285; test: as above; format: cell-based
[4] = test system: Pseudomonas aeruginosa 1592E; test: as above; format: cell-based; conditions: Mueller-Hinton agar, 10⁷ CFU/mℓ, 37°C, 18 hours
[5] = test system: Staphylococcus aureus 503; test: as above; format: cell-based
[6] = test system: Pseudomonas aeruginosa 1771M; test: as above; format: cell-based; conditions: 18 h
Escherichia coli O 55 = test: as above; format: cell-based; conditions: 10⁷ CFU/mℓ, 37°C, 18 hours
Escherichia coli DC 0 = test: as above; format: cell-based; conditions: 10⁷ CFU/mℓ, 37°C, 18 hours
[7] = test system: Pseudomonas aeruginosa 1771; test: as above; format: cell-based
[8] = test system: Pseudomonas aeruginosa 9027; test: as above; format: cell-based
Salmonella typhimurium = test: as above; format: cell-based; conditions: Mueller-Hinton agar, 10⁷ CFU/mℓ, 37°C, 18 hours
Escherichia coli DC 2 = test: as above; format: cell-based; conditions: 10⁷ CFU/mℓ, 37°C, 18 hours
[9] = test system: Streptococcus faecium MD 8b; test: as above; format: cell-based
[10] = test system: Streptococcus pyogenes 308A; test: as above; format: cell-based; conditions: Mueller-Hinton agar, 10⁷ CFU/mℓ, 37°C, 18 hours
Escherichia coli 1507E = test: as above; format: cell-based; conditions: Mueller-Hinton agar, 10⁷ CFU/mℓ, 37°C, 18 hours
[11] = test system: Enterobacter cloacae 1321E; test: as above; format: cell-based; conditions: Mueller-Hinton agar, 10⁷ CFU/mℓ, 37°C, 18 hours
[12] = test system: Klebsiella aerogenes 1522E; test: as above; format: cell-based; conditions: Mueller-Hinton agar, 10⁷ CFU/mℓ, 37°C, 18 hours
Escherichia coli OTEM = test: as above; format: cell-based; conditions: Mueller-Hinton agar, 10⁷ CFU/mℓ, 37°C, 18 hours
Enterobacter cloacae P99 = test: as above; format: cell-based; conditions: Mueller-Hinton agar, 10⁷ CFU/mℓ, 37°C, 18 hours
[13] = test system: Klebsiella aerogenes 1082E; test: as above; format: cell-based; conditions: Mueller-Hinton agar, 10⁷ CFU/mℓ, 37°C, 18 hours
[14] = Oral Administration immediately and after 4 hours
[15] = Subcutaneous Injection immediately and after 4 hours
[16] = O55, Mueller-Hinton agar, read-out: MIC
[17] = DC0, Mueller-Hinton agar, read-out: MIC
[18] = Salmonella enterica, read-out: MIC
[19] = DC2, Mueller-Hinton agar, read-out: MIC
[20] = SG511, Staphylococcus aureus SG 511, Mueller-Hinton agar, 10⁷ CFU/mℓ, 37°C, 18 hours, read-out: MIC
[21] = Streptococcus pyogenes 77A, Mueller-Hinton agar, 10⁷ CFU/mℓ, 37°C, 18 hours, read-out: MIC
[22] = Staphylococcus aureus 285, Mueller-Hinton agar, 10⁷ CFU/mℓ, 37°C, 18 hours, read-out: MIC
[23] = Staphylococcus aureus 503, Mueller-Hinton agar, 10⁷ CFU/mℓ, 37°C, 18 hours, read-out: MIC
[24] = Pseudomonas aeruginosa 1771, Mueller-Hinton agar, 10⁷ CFU/mℓ, 37°C, 18 hours, read-out: MIC
[25] = Pseudomonas aeruginosa 9027, Mueller-Hinton agar, 10⁷ CFU/mℓ, 37°C, 18 hours, read-out: MIC
[26] = Enterococcus faecium, MD8B, Streptococcus faecium MD 8b, Mueller-Hinton agar, 10⁷ CFU/mℓ, 37°C, 18 hours, read-out: MIC

| Molecule | MIC ([4]; read-out: MIC) | MIC [6] | MIC (Escherichia coli O 55; [16]) | MIC (Escherichia coli DC 0; [17]) | MIC (Salmonella typhimurium; [18]) | MIC (Escherichia coli DC 2; [19]) | MIC ([10]; read-out: MIC) | MIC [1, 20] | MIC (Escherichia coli 1507E; read-out: MIC) | MIC [2, 21] | MIC [3, 22] | MIC [5, 23] | MIC ([11]; read-out: MIC) | MIC [7, 24] | MIC [8, 25] | MIC ([12]; read-out: MIC) | MIC (Escherichia coli OTEM; read-out: MIC) | MIC (Enterobacter cloacae P99; read-out: MIC) | MIC [9, 26] | MIC ([13]; read-out: MIC) | other results |
| --- | --- | --- | --- | --- | --- | --- | --- | --- | --- | --- | --- | --- | --- | --- | --- | --- | --- | --- | --- | --- | --- |
| O=C(O)c1cn(C2CC2)c2cc(N3CCNCC3)c(F)cc2c1=O [Ciprofloxacin, reference compound] | 0.391 µg/mL (≈ 1.18 µM) | 0.195 µg/mL (≈ 0.589 µM) | 0.007 µg/mL (≈ 0.0211 µM) | 0.391 µg/mL (≈ 1.18 µM) | 0.049 µg/mL (≈ 0.148 µM) | 0.195 µg/mL (≈ 0.589 µM) | 3.12 µg/mL (≈ 9.43 µM) |  |  |  |  |  |  |  |  |  |  |  |  |  | MIC ([1]; Staphylococcus aureus, SG511, 18 h): 0.781 µg/mL (≈ 2.36 µM); ED50 (S. aureus 17740; [14]): > 200 mg/kg; ED50 (S. aureus 17740; [15]): 132 mg/kg; ED50 (P. mirabilis; [14]): 0.92 mg/kg; ED50 (P. mirabilis; [15]): 0.28 mg/kg; MIC ([2]; Streptococcus pyogenes, 77A, 18 h): 0.781 µg/mL (≈ 2.36 µM); MIC ([3]; Staphylococcus aureus, 285, 18 h): 0.781 µg/mL (≈ 2.36 µM); MIC ([5]; Staphylococcus aureus, 503, 18 h): 0.781 µg/mL (≈ 2.36 µM); MIC ([7]; Pseudomonas aeruginosa, 1771, 18 h): 0.781 µg/mL (≈ 2.36 µM); MIC ([8]; Pseudomonas aeruginosa, 9027, 18 h): 0.781 µg/mL (≈ 2.36 µM); MIC ([9]; Enterococcus faecium, MD8B, 18 h): 0.781 µg/mL (≈ 2.36 µM) |
| CNC1CCC2=C1CN(c1c(F)c(N)c3c(=O)c(C(=O)O)cn(C4CC4)c3c1F)C2 (centres unmarked) [Example 11, 7-[6-methylamino-3-azabicyclo[3,3,0]oct-1(5)ene-3-yl]-5-amino-1-cyclopropyl-6,8-difluoro-1,4-dihydro-4-oxoquinoline-3-carboxylic acid] | 3.12 µg/mL (≈ 7.5 µM) | 1.56 µg/mL (≈ 3.75 µM) | 0.025 µg/mL (≈ 0.06 µM) | 1.56 µg/mL (≈ 3.75 µM) | 0.098 µg/mL (≈ 0.235 µM) | 0.049 µg/mL (≈ 0.118 µM) | 0.391 µg/mL (≈ 0.939 µM) | 0.195 µg/mL (≈ 0.468 µM) | 0.098 µg/mL (≈ 0.235 µM) | 0.195 µg/mL (≈ 0.468 µM) | 0.049 µg/mL (≈ 0.118 µM) | 0.049 µg/mL (≈ 0.118 µM) | 0.049 µg/mL (≈ 0.118 µM) | 3.12 µg/mL (≈ 7.5 µM) | 3.12 µg/mL (≈ 7.5 µM) | 0.195 µg/mL (≈ 0.468 µM) | 0.049 µg/mL (≈ 0.118 µM) | 0.195 µg/mL (≈ 0.468 µM) | 0.195 µg/mL (≈ 0.468 µM) | 0.007 µg/mL (≈ 0.0168 µM) |  |
| CC1COc2c(N3CCN(C)CC3)c(F)cc3c(=O)c(C(=O)O)cn1c23 (centres unmarked) [Ofloxacin, reference compound] | 1.56 µg/mL (≈ 4.33 µM) | 0.391 µg/mL (≈ 1.08 µM) | 0.025 µg/mL (≈ 0.0692 µM) | 0.781 µg/mL (≈ 2.16 µM) | 0.098 µg/mL (≈ 0.271 µM) | 0.391 µg/mL (≈ 1.08 µM) | 3.12 µg/mL (≈ 8.65 µM) | 0.391 µg/mL (≈ 1.08 µM) | 0.098 µg/mL (≈ 0.271 µM) | 1.56 µg/mL (≈ 4.33 µM) | 0.391 µg/mL (≈ 1.08 µM) | 0.391 µg/mL (≈ 1.08 µM) | 0.049 µg/mL (≈ 0.136 µM) | 1.56 µg/mL (≈ 4.33 µM) | 1.56 µg/mL (≈ 4.33 µM) | 0.098 µg/mL (≈ 0.271 µM) | 0.049 µg/mL (≈ 0.136 µM) | 0.098 µg/mL (≈ 0.271 µM) | 0.781 µg/mL (≈ 2.16 µM) | 0.025 µg/mL (≈ 0.0692 µM) | ED50 (S. aureus 17740; [14]): > 200 mg/kg; ED50 (S. aureus 17740; [15]): 200 mg/kg; ED50 (P. mirabilis; [14]): 2.27 mg/kg; ED50 (P. mirabilis; [15]): 0.53 mg/kg |
| CNC1CCC2=C1CN(c1c(F)cc3c(=O)c(C(=O)O)cn(C4CC4)c3c1Cl)C2 (centres unmarked) [Example 4, 7-[6-methylamino-3-azabicyclo[3,3,0]oct-1(5)ene-3-yl]-8-chloro-1-cyclopropyl-6-fluoro-1,4-dihydro-4-oxoquinoline-3-carboxylic acid] | 3.12 µg/mL (≈ 7.48 µM) | 0.781 µg/mL (≈ 1.87 µM) | 0.025 µg/mL (≈ 0.0598 µM) | 0.781 µg/mL (≈ 1.87 µM) | 0.049 µg/mL (≈ 0.117 µM) | 0.025 µg/mL (≈ 0.0598 µM) | 0.195 µg/mL (≈ 0.467 µM) | 0.025 µg/mL (≈ 0.0598 µM) | 0.098 µg/mL (≈ 0.235 µM) | 0.025 µg/mL (≈ 0.0598 µM) | 0.049 µg/mL (≈ 0.117 µM) | 0.025 µg/mL (≈ 0.0598 µM) | 0.098 µg/mL (≈ 0.235 µM) | 3.12 µg/mL (≈ 7.48 µM) | 3.12 µg/mL (≈ 7.48 µM) | 0.195 µg/mL (≈ 0.467 µM) | 0.098 µg/mL (≈ 0.235 µM) | 0.098 µg/mL (≈ 0.235 µM) | 0.049 µg/mL (≈ 0.117 µM) | < 0.002 µg/mL |  |
| 7-[6-amino-3-azabicyclo[3,3,0]oct-1(5) ene-3-yl]-5-amino-1-cyclopropyl-6,8-difluoro-1,4-dihydro-4-oxoquinoline-3-carboxylic acid [Example 10] |  |  |  |  |  |  |  |  |  |  |  |  |  |  |  |  |  |  |  |  | MIC ([1]; Staphylococcus aureus SG 511, Mueller-Hinton agar, 10⁷ CFU/mℓ, 37°C, 18 hours): 0.025 µg/mL; MIC (Escherichia coli 1507E): 0.049 µg/mL; MIC ([2]; Streptococcus pyogenes 77A, Mueller-Hinton agar, 10⁷ CFU/mℓ, 37°C, 18 hours): 0.049 µg/mL; MIC ([3]; Staphylococcus aureus 285, Mueller-Hinton agar, 10⁷ CFU/mℓ, 37°C, 18 hours): 0.049 µg/mL; MIC [4]: 1.563 µg/mL; MIC ([5]; Staphylococcus aureus 503, Mueller-Hinton agar, 10⁷ CFU/mℓ, 37°C, 18 hours): 0.025 µg/mL; MIC [11]: 0.025 µg/mL; MIC (Escherichia coli O 55; Mueller-Hinton agar): 0.025 µg/mL; MIC (Escherichia coli DC 0; Mueller-Hinton agar): 0.781 µg/mL; MIC ([7]; Pseudomonas aeruginosa 1771, Mueller-Hinton agar, 10⁷ CFU/mℓ, 37°C, 18 hours): 1.563 µg/mL; MIC ([8]; Pseudomonas aeruginosa 9027, Mueller-Hinton agar, 10⁷ CFU/mℓ, 37°C, 18 hours): 1.563 µg/mL; MIC [12]: 0.098 µg/mL; MIC (Escherichia coli OTEM): 0.049 µg/mL; MIC (Salmonella typhimurium): 0.025 µg/mL; MIC (Enterobacter cloacae P99): 0.025 µg/mL; MIC (Escherichia coli DC 2; Mueller-Hinton agar): 0.049 µg/mL; MIC ([9]; Streptococcus faecium MD 8b, Mueller-Hinton agar, 10⁷ CFU/mℓ, 37°C, 18 hours): 0.195 µg/mL; MIC [13]: 0.007 µg/mL; MIC [10]: 0.195 µg/mL |
